PubChem BioAssay AID488814 (NMMLSC, 2010)

Test system: S. cerevisiae RPL19A-GFP strain, flow cytometry GFP, 3 h;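 active = compounds with a fitted EC50 of 33 micromolar or lower on the RPL19A GFP reporter; inactive = the rest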
Assay: TOR pathway reporter RPL19A-GFP modulators – cell-based, cherry pick 3, SAR, flow cytometry GFP, multiplex, dose response (AID 488814)

EC50, active:
CC1=NNC(=O)/C1=C\c1cn(-c2ccccc2)nc1-c1ccc(F)cc1 15.3 µM
Cc1ccc2c(Cl)cc(Cl)c(O)c2n1 14.7 µM
Cc1ccc(NN2C(=O)C=C(c3ccccc3)C2=O)cc1 0.876 µM
